From the CATMoS acute toxicity set (Mansouri et al. 2021) come the findings set out here.

Where “and” joins values, the source holds several entries; their conditions need not be identical. Identical values can stand only once.

The data set can be described thus: rat acute oral toxicity. The conditions noted are these: in vivo. From the text:
[…]The data set underlying the modeling effort for this project was initially compiled by NICEATM and U.S. EPA’s CCTE. Briefly, LD50 data were collected from rat acute oral systemic toxicity tests, including limit tests, ranges/confidence intervals, and discrete LD50 values. The full data set included 21,200 LD50 entries for 15,688 substances. […] Data were reviewed to ensure that LD50 values with obvious errors in the extracted data such as unit conversion errors (e.g., comma and decimal separator misplacements) were either fixed or removed. After this review, 16,209 LD50 values remained. Many of the chemicals represented had multiple LD50 entries, requiring that a single representative value per Chemical Abstracts Service Registry Number (CASRN) identifier be defined to facilitate modeling efforts. Based on ATWG feedback and to define the representative LD50 as a protective value while accounting for the distribution across multiple LD50s, the median of the lowest quartile was computed using only discrete LD50 values (omitting limit test data and range and confidence interval data). A detailed summary of the data compilation is available online on the NICEATM webpage dedicated to the collaborative modeling project (NTP 2020).
[…][…] For categorical designations, limit test and range/confidence interval LD50 data were integrated wherever possible. As such, the number of chemicals with end point values/calls varies across the modeling end points (Table 3) based on whether chemicals had representative LD50 values and/or other data. If a chemical had both, the representative value was used to determine categorical calls rather than limit test data. Some data were useable only for certain end points and categories depending on the thresholds. For example, ranges that spanned multiple hazard categories were considered only for the binary (very toxic/nontoxic) end points and omitted from rendering a determination for hazard category assignment.
[…]The final data set comprising 11,992 chemicals was split into training and evaluation sets […], respectively. This process was performed semirandomly by ordering chemicals based on the five end points (categorical and continuous LD50 values) and partitioning every fourth record into the evaluation set accordingly. This approach was taken to ensure an equivalent distribution of the LD50 values and the different hazard categories between the training and the evaluation sets without supervised sampling of the chemicals based on structures (Figure 1A). The sources of the chemical structures were also kept equivalent between the two sets, with chemical structures obtained from DSSTox, being the highest quality, representing over 75% of each set (Figure 1B).
Regarding `CCOC(=O)c1cn2nc(OP(=S)(OCC)OCC)cc2nc1C`, the LD50 was 151 mg/kg.

`CC(C)CO` yielded a median lethal dose (LD50) of 2460 mg/kg.

On to `C1=CC2CCC1C2`, for which the LD50 was 9580 mg/kg. Against the preceding compound, the LD50 is about 3.9-fold higher.

Compound `CCCCCO` displayed a median lethal dose (LD50) of 2200 mg/kg. This LD50 is about 4.4-fold lower than that of the compound before.

Compound `O=C1OC(=O)C2C1C1(Cl)C(Cl)=C(Cl)C2(Cl)C1(Cl)Cl` (stereo unspecified) returned an LD50 of 2130 mg/kg.

In turn, `CNC(=O)ON=C(SC)C(=O)N(C)C` registered an LD50 of 2.5 mg/kg.

In the case of `NC(=O)CF`, the median lethal dose (LD50) turned out to be 5.75 mg/kg.

Take `CCC[Si](OC)(OC)OC`: the LD50 is 5170 mg/kg.

`O=C1CCC(=O)O1` returned a median lethal dose (LD50) of 1510 mg/kg.

`CCC(C)=O`: the LD50 turned out to be 2740 mg/kg.

The compound `CC1(C)[C@H](C(=O)O[C@@H](C#N)c2cccc(Oc3ccccc3)c2)[C@@H]1C=C(Cl)Cl` (single isomer, unassigned) returned an LD50 of 57 mg/kg.

Compound `Oc1nc2ccccc2[nH]1` showed an LD50 of 1930 mg/kg.

`c1ccc(OP(Oc2ccccc2)Oc2ccccc2)cc1`: the LD50 worked out at 444 mg/kg.

On to `CC(=O)OC1CC(C)OC(C)O1` (stereo unspecified), for which the LD50 came out at 1930 mg/kg.

In the case of `CCCSP(=O)(OCC)Oc1ccc(Br)cc1Cl` (stereo unspecified), the median lethal dose (LD50) was 358 mg/kg.

`O=C(O)c1ccc2c(c1)C(=O)OC2=O`: the LD50 is 2030 mg/kg.

In turn, `CC(C)OC(=O)Cl` yielded a 50% lethal dose (LD50) of 468 mg/kg.

The compound `OCCNc1ccccc1` yielded an LD50 of 2230 mg/kg.

`O=C(O)C=CC(=O)O` registered an LD50 of 708 mg/kg.

Turning to `Cc1ccc(O)cc1`, the median lethal dose (LD50) stood at 207 mg/kg. This LD50 is about 3.4-fold lower than that of the compound before.

Regarding `CCOC(=O)CCl`, the LD50 was found to be 50 mg/kg.

The compound `CI` registered an LD50 of 76 mg/kg.

In the case of `CCCC1CC(C)(OC(C)=O)CCO1` (stereo unspecified), the LD50 came to 4300 mg/kg.

`OCc1ccco1`: the 50% lethal dose (LD50) came to 177 mg/kg. This LD50 is about 24-fold lower than that of the compound before.

`OC1CCCCC1` showed a median lethal dose (LD50) of 1400 mg/kg.

As to `NC1CCC(CC2CCC(N)CC2)CC1` (stereo unspecified), the LD50 worked out at 350 mg/kg.

With `O=S(=O)(O)OCCOc1ccc(Cl)cc1Cl`, the 50% lethal dose (LD50) amounted to 480 mg/kg.

Regarding `CCOP(=O)(O)C(N)=O`, the median lethal dose (LD50) is 2080 mg/kg.

Take `C=CC(=O)NC(C)(C)CC(C)=O`: the LD50 came to 1000 mg/kg. This LD50 is about 2.1-fold lower than that of the compound before.

Turning to `C1CN(SSN2CCOCC2)CCO1`, the LD50 was determined as 4300 mg/kg.

`C[N+](C)(C)CCCl` came in with a median lethal dose (LD50) of 600 mg/kg.

As to `Cc1cccc(Nc2cc(Cl)nc(SCC(=O)O)n2)c1C`, the LD50 is 1050 mg/kg. This LD50 lies about 1.8-fold higher than the previous one.

The compound `O=[N+]([O-])c1cccc(Cl)c1Cl` yielded an LD50 of 381 mg/kg.

Compound `C[Si]1(CCC(F)(F)F)O[Si](C)(CCC(F)(F)F)O[Si](C)(CCC(F)(F)F)O1` (stereo unspecified) gave an LD50 of 180 mg/kg.

In turn, `CCCCOC(=O)CO` showed a median lethal dose (LD50) of 4240 mg/kg. Against the preceding compound, the LD50 is about 24-fold higher.

`CCCCCCCCOC(=O)c1cc(O)c(O)c(O)c1`: the median lethal dose (LD50) was found to be 1960 mg/kg.

In turn, `CCOP(=S)(OCC)Oc1cc(Cl)c(SC)cc1Cl` gave an LD50 of 9.1 mg/kg.

Compound `C=CC1CC=CCC1` (stereo unspecified) returned an LD50 of 1600 mg/kg. This LD50 is about 180-fold higher than that of the compound before.

In turn, `CCCCOP(C)(=O)CCC(C#N)OC(C)=O` (stereo unspecified) yielded an LD50 of 253 mg/kg.

Take `C=CCO`: the 50% lethal dose (LD50) stood at 64 mg/kg.

Regarding `CCOC(=O)C(O)(c1ccc(Cl)cc1)c1ccc(Cl)cc1`, the median lethal dose (LD50) amounted to 700 mg/kg.

Regarding `C=CCOC(=O)OCCOCCOC(=O)OCC=C`, the median lethal dose (LD50) amounted to 350 mg/kg. This LD50 is about 2-fold lower than that of the compound before.

For `CC(C)[C@H](C(=O)O[C@H](C#N)c1cccc(Oc2ccccc2)c1)c1ccc(Cl)cc1`, the 50% lethal dose (LD50) stood at 88 mg/kg.

On to `CC(CCl)OC(C)CCl` (stereo unspecified), for which the 50% lethal dose (LD50) came to 240 mg/kg.

Take `O=C(O)C1(C(=O)Nc2ccc(Cl)cc2Cl)CC1`: the LD50 turned out to be 208 mg/kg.

In turn, `CCCS` came in with an LD50 of 1730 mg/kg.

Compound `O=Cc1ccccn1` registered a median lethal dose (LD50) of 566 mg/kg.

Compound `c1ccc(Nc2ccccc2)cc1` had an LD50 of 1120 mg/kg.

`CCCOCCO` came in with a median lethal dose (LD50) of 3090 mg/kg.

With `Oc1ccc(Cl)cc1Cl`, the median lethal dose (LD50) was 47 mg/kg.

The compound `ClC1=C(Cl)C2(Cl)C3C4CC(C5OC45)C3C1(Cl)C2(Cl)Cl` (stereo unspecified) displayed a median lethal dose (LD50) of 3 mg/kg.

For `C/C=C\CC1=C(C)[C@@H](OC(=O)[C@@H]2[C@@H](C=C(C)C)C2(C)C)CC1=O`, the 50% lethal dose (LD50) was 1030 mg/kg.

Compound `O=C(C=Cc1ccccc1)OCc1ccccc1` came in with an LD50 of 5380 mg/kg.

On to `O=C1CCN(c2ccccc2)N1`, for which the 50% lethal dose (LD50) was 200 mg/kg.

In the case of `O=C(O)CC(O)C(=O)O` (stereo unspecified), the LD50 is 9300 mg/kg and 3200 mg/kg.

The compound `O=C=Nc1ccc(OC(F)(F)F)cc1` gave a median lethal dose (LD50) of 1520 mg/kg.

In general, LD50 refers to the dose expected to kill half of the subjects tested.
